This note sets out measurements from patent US8283308B2, “Copolymer-stabilized emulsions” (The Regents of the University of California, priority 2007, dated 2012).

Common to all, as to format: physicochemical
Series [1] in a line: Emulsion droplet sizes from cryo-TEM (CTEM) images. How it is done:
For certain applications, further size separation may be desired. For these applications, we could also use centrifugation to fractionate the emulsion and isolate emulsions of a desired size range. To accomplish such separation, a 1.5 mM K40rL20 emulsion (φ=0.2) that had been passed through the microfluidic homogenizer for six passes (N=6) was placed in a desktop centrifuge set to a low speed of 3,500 rpm (revolutions per minute) for 4 hours. Due to the differences in mass densities of the droplet structures with respect to the continuous liquid phase, the larger droplets rose to the top as a plug more rapidly and could be separated out easily from the extremely dilute suspension of smaller droplets below (i.e. the remnants). We were able to separate out larger droplets that had diameters greater than 300 nm. The remnant suspension had droplet diameters less than 300 nm, therefore, a higher speed centrifuge was needed to further fractionate the sizes of the droplets. The remnant suspension was placed in an ultracentrifuge and centrifuged […] at 20,000 rpm.
A 1.5 mM K40rL20 emulsion (prepared as above) was centrifuged in a 15 mL plastic centrifuge tube for 24 h at 3,500 rpm using an IEC HN-S tabletop centrifuge. A 0.5 mm plug formed, and was separated from the remnants. A plug was formed at the top of the tube (droplet sizes >300 nm, by cryo-TEM), due the different densities of silicone oil and water (0.973 g/mL for 10 cSt PDMS silicone oil vs. 1.0 g/mL for water). The plug was isolated from the rest of the sample, designated as primary remnants, and these primary remnants were further fractionated at 20,000 rpm for 4 hrs using a Beckman L8-55 ultracentrifuge. A plug formed on the top of the suspension (droplet sizes ranging from 30 nm to 200 nm, by cryo-TEM) along with droplets remaining in suspension as secondary remnants (droplet sizes ranging from 10 nm to 30 nm, by cryo-TEM).
Each emulsion sample was diluted tenfold with DI water prior to imaging. An aliquot of each sample (5 μL) was then placed on a carbon grid. The grid was loaded into a Vitrobot (FEI) automated vitrification device for automated sample blotting and vitrification in liquid ethane. The grid was stored under liquid nitrogen and then placed, using a cold stage, in a Phillips Tecnai F20 electron microscope with an accelerating voltage of 120 kV. Images were obtained on a Teitz SCX slow-scan CCD detector coupled to the Leginon software package.
PDMS silicone oil (10 cSt) was added to give the desired volume fraction A of oil to the continuous phase (0.05<φ<0.50). A microscale emulsion (i.e. “premix” emulsion) was prepared by either mixing for 1 minute using a handheld homogenizer (IKA Ultra-Turrax T8 with the S8N-8G dispersing element) or by mixing for 10 seconds using a handheld ultrasonic tip homogenizer (Cole-Parmer 4710 Series Model ASI at an output of 35-40%). This emulsion was then passed through a M-110S Microfluidizer® Processor with a 75 μm stainless steel/ceramic interaction chamber and an input air pressure p=130 psi. The emulsion was collected at the product outlet, and then passed through the microfluidic homogenizer repeatedly for a total of six passes (N=6), which decreased the average droplet radius (e.g. of the single droplets in a simple emulsion and of the outer and inner droplets in a double emulsion) and increased the monodispersity of the droplets in the emulsions. A similar protocol was used for emulsions generated using other block copolypeptide surfactants (Table 1. FIGS. 7A-7C). The ratio given by the inner droplet radius divided by the outer droplet radius (labeled as “I/O ratio”) was relatively uniform for different hydrophobic chain lengths at approximately 0.5 (Table 1, FIG. 7D). Other amphiphilic block copolypeptides, where either the lysine or leucine domains were substituted with different hydrophilic or hydrophobic residues, respectively, were also found to form double emulsions (FIGS. 8A-8D).

A short description of series [2]: Emulsification activity, emulsion type and stability. How it is done:
The freeze-dried K40rL10 copolypeptide was first dissolved in de-ionized water at the desired concentration. The range of block copolypeptide concentrations, C, varied from 1.0×10^−4 mM to 1.7 mM. Silicone oil (10 cSt, Gelest PDMS) was added to give the desired volume fraction φ of oil to the continuous phase (0.01≦φ≦0.8). A premix emulsion was prepared by applying shear using either a handheld homogenizer (IKA Ultra-Turrax T8 with the S8N-8G dispersing element) or a handheld ultrasonic homogenizer (Cole-Palmer 4710 Series Model ASI at an output of 35-40%). This premix emulsion was then passed through a M-110S Microfluidizer® Processor with a 75 μm stainless steel/ceramic interaction chamber and an input air pressure p=130 psi. The emulsion was collected at the product outlet of the microfluidic homogenizer, and then passed through the microfluidic homogenizer five more passes (N=6 total), which decreased the average droplet radius and increased the monodispersity of the sample. We have formed double emulsions of copolypeptide, water, and various oils other than 10 cSt and 100 cSt silicone oil, including soybean oil and methyl oleate.
Diblock copolypeptides were screened for emulsification activity by adding PDMS silicone oil to aqueous Kx(rac-L)y solutions (Table 1, FIGS. 2A-2B, 11A). […]

Series [3] can be described thus: Emulsion droplet size by dynamic light scattering (DLS). Particulars: N=6, p=130 psi, φ=0.20. As to the method: The diameters of emulsion droplets were estimated by dynamic light scattering (DLS) with a Photocor-FC board and software. The samples were diluted to obtain an intensity reading of between 1×10^5 and 6×10^5. Each measurement was performed at a scattering angle of 90° for 500 seconds, with linear channel spacing and an adjustable baseline. The fitting procedure used was cumulant analysis with an adjustable baseline to fit the data and calculate average droplet radii.

Series [4] can be described thus: Critical aggregation concentration by pyrene fluorescence. The settings on record: pyrene fluorescence at 20° C.
A short description of series [5]: Oil/water interfacial tension, Du Nouy ring method. Particulars: 10 cSt PDMS / 0.1 mM block copolypeptide solution, pull rate 0.01 mm/s, 25° C.
Setting [6] is: sample fractionated from larger droplets by centrifugation followed by ultracentrifugation.

As to “Poly(L-lysine-HBr)40-b-poly(rac-leucine)20 [K40(rac-L)20]”, the “droplet diameters of remnant suspension after low speed centrifugation” value in series [1] (1.5 mM emulsion, 3,500 rpm) is reported as “less than 300 nm”. In series [1] (after passage six times through microfluidic homogenizer), the droplet diameters result is on record as “ten to a few hundred”. In addition, the “Inner/Outer Diameter Ratio” value is 0.57 in series [1] (average of at least 50 droplets from CTEM, N=6, p=130 psi, C=1.0 mM, φ=0.20) and 0.45 in series [1] (setting [6]). For the same substance, the “Droplet Diameter (nm)” value in series [1] (outer droplets, average of at least 50 droplets from CTEM, microfluidic homogenizer N=6, p=130 psi, C=1.0 mM, φ=0.20) worked out at 120 nm; in series [1] (setting [6]), 60 nm. The “smallest double emulsion droplets, diameter” value in series [1] (ultrasonic homogenization) is “ca. 400 nm”. Also, the “type of emulsion formed” value in series [2] (PDMS silicone oil, microscopy / cryo-TEM) is listed as “formation of double emulsions”. In addition, the “emulsification of other immiscible liquids” value in series [2] (dodecane, soybean oil, methyl oleate, 1 mM in water) was “gave emulsions”. The average droplet radius result is given as “about 400 nm” in series [3] (copolypeptide concentration 0.1 mM) and “about 160 nm” in series [3] (copolypeptide concentration 1.5 mM). Also, the “CAC” value in series [4] turned out to be 970 nM. Moreover, the “Interfacial Tension (dyne/cm)” value in series [5] was 25.3 dyne/cm.
